Test results published in patent US20230241017A1, “Hydrophilic Degradable Microsphere for Delivering Travoprost” (Occlugel, priority 2020, published 2023).
Marks after values point to notes of the source that are not given here.

Experiments:
[1] = Extemporaneous loading of latanoprost and latanoprostene BUNOD on sterile MS5; type: physicochemical; conditions: for Drug loading on MS5: extemporaneous loading on freeze-dried e-beam sterilized MS5, 5 min room temperature; for loading efficiencies (%) on MS5: extemporaneous loading on sterile MS5, 5 min room temperature
Protocol: After the sieving step of MS5, 100 μL or 250 μL of pellets were suspended in 5 mL of a solution containing 2.5% (w/v) of mannitol. After homogenization, the pellets of microspheres were recovered, frozen-dried and sterilized by e-beam radiation (25 kilograys).
Latanoprost Loading To the dry and sterile pellets of microspheres (250 μL), 500 μL of latanoprost solution (TRC-L177280-10MG) at 2 mg/mL in acetonitrile/water mixture (70/30) were added. After 5 min of mixing at room temperature under stirring on a tube rotator (=30 rpm), the supernatants were removed for the measurement of unbound latanoprost by RP-HPLC at 210 nm on a C18 column (46×150 mm) using a mobile phase made of acetonitrile/water containing 0.1% TFA (60:40, v/v) at a flow rate of 1 mL/min in the isocratic mode at 25° C. The amount of latanoprost in supernatants was obtained by extrapolation from a standard curve (0.5 to 20 μg/mL). The loaded dose was calculated by subtracting the final amount of latanoprost from the initial amount. The latanoprost loading for 1 mL of beads was obtained by multiplying by 4 the quantity loaded on 250 μL of MS.
Latanoprostene BUNOD is a nitric oxide (NO)-donating prostaglandin F2a analogue approved for the reduction of intraocular pressure in patients with open-angle glaucoma or ocular hypertension. To the dry and sterile pellets of microspheres (100 μL), 700 μL of latanoprotene BUNOD (TRC-L177335-2.5MG) solution at 1 mg/mL in acetonitrile/water mixture (70/30%) were added. After 5 min of mixing at room temperature under stirring on a tube rotator (=30 rpm), the supernatants were removed for the measurement of unbound drug by RP-HPLC at 210 nm on a C18 column (46×150 mm) using a mobile phase made of acetonitrile/water containing 0.1% TFA (60:40, v/v) at a flow rate of 1 mL/min in the isocratic mode at 25° C. The amount of latanoprotene BUNOD in supernatants was obtained by extrapolation from a standard curve (0.25 to 25 μg/mL). The loaded dose was calculated by subtracting the final amount of latanoprotene BUNOD from the initial amount. The latanoprotene BUNOD loading for 1 mL of beads was obtained by multiplying by 10 the quantity loaded on 100 μL of MS.

[2] = In vitro release of latanoprost and latanoprostene BUNOD in PBS after extemporaneous loading on MS5; type: physicochemical; conditions: for elution after 5 weeks of incubation: loaded on MS5, PBS 37 °C (FIG. 9); for % of prostaglandin analogues release after 10 min in PBS / % of prostaglandin analogues release after 1 day in PBS / % of prostaglandin analogues release after 7 days in PBS / % of prostaglandin analogues release after 18 days in PBS: loaded on sterile MS5, PBS pH 7.4, 37 °C
Protocol: Then, immediately after the loading step, 50 mL of PBS (Sigma P-5368; 10 mM phosphate buffered saline; NaCl 0,136 M; KCl 0,0027 M; pH 7.4) was added to the microspheres loaded with latanoprost or latanoprostene BUNOD for the in vitro drug release (37° C., 150 rpm). The medium was completely renewed after each sample collection (10 min, 2 h, 24 h and every 3-4 days during 5 weeks). The amounts of prostaglandin analogues in PBS supernatants were determined by RP-HPLC at 210 nm for latanoprost and latanoprostene BUNOD on a C18 column (46×150 mm) using a mobile phase made of acetonitrile/water containing 0.1% TFA (60:40, v/v) at a flow rate of 1 mL/min in the isocratic mode at 25° C. The results are summarized in Table 7 and in FIG. 9 for each drug.

[3] = pubchem.ncbi.nlm.nih.gov; cited from earlier work
[4] = In vitro release of travoprost in PBS after extemporaneous loading; type: physicochemical; conditions: from MS5 after extemporaneous loading; PBS 37 °C (FIG. 7)
Protocol: Then, PBS (50 mL) was added to the microspheres loaded with travoprost for the in vitro drug release experiment (37° C., 150 rpm). The medium was completely renewed after each sample collection. The amounts of travoprost in PBS supernatants were determined by RP-HPLC at 222 nm on a C18 column (46×150 mm) using a mobile phase made of acetonitrile/water containing 0.1% TFA (60:40, v/v) at a flow rate of 1 mL/min in the isocratic mode at 25° C.

| Drug loading on MS5 [1] [mg/mL] | loading efficiencies (%) on MS5 [1] | elution after 5 weeks of incubation [2] | % of prostaglandin analogues release after 10 min in PBS [2] [%] | % of prostaglandin analogues release after 1 day in PBS [2] [%] | % of prostaglandin analogues release after 7 days in PBS [2] [%] | % of prostaglandin analogues release after 18 days in PBS [2] [%] | amount of drug loaded on the degradable microsphere MS5 ([1]; extemporaneous loading on sterile MS5) | duration of sustained travoprost release [4] | initial burst release of travoprost [4] [%] | SMILES | Partition coefficient P (Log P) of the prostaglandin analogues [3] |
| --- | --- | --- | --- | --- | --- | --- | --- | --- | --- | --- | --- |
| 3.83 ± 0.07 | (98%)** | practically complete | 8.7 ± 0.5 | 42.3 ± 10 | 59.7 ± 11.1 | 77.5 ± 11.9 |  |  |  | CC(C)OC(=O)CCC/C=C\C[C@@H]1[C@@H](CC[C@@H](O)CCc2ccccc2)[C@H](O)C[C@@H]1O [Latanoprost] |  |
| 6.58 ± 0.1 | (94%) | practically complete | 7.04 ± 2.2 | 32.4 ± 4.1 | 45.2 ± 4.5 | 60 ± 6.2 | at least 6.5 mg |  |  | O=C(CCC/C=C\C[C@@H]1[C@@H](CC[C@@H](O)CCc2ccccc2)[C@H](O)C[C@@H]1O)OCCCCO[N+](=O)[O-] [Latanoprostene BUNOD] | 3.79-3.94 |
|  |  |  |  |  |  |  |  | at least two months | 3.5 | CC(C)OC(=O)CCC/C=C\C[C@@H]1[C@@H](/C=C/[C@@H](O)COc2cccc(C(F)(F)F)c2)[C@H](O)C[C@@H]1O [travoprost] |  |
